{"source": "patent US5270342A", "about": "“Acetamide derivatives” (Imperial Chemical Industries PLC, priority 1990, dated 1993)", "key": {"[1]": {"target": "T1, aldose reductase (Bos taurus, UniProt P16116)", "T1 construct": "partially purified aldose reductase is isolated in known manner from bovine lenses; from tissue; host or cells: bovine lenses", "experiment": "inhibition in vitro of partially purified aldose reductase isolated from bovine lenses (spectrophotometric)", "type": "biochemical", "details": "bovine lens aldose reductase", "source_text": "Thus, in a standard procedure partially purified aldose reductase is isolated in known manner from bovine lenses. The percentage inhibition of this enzyme's ability in vitro to catalyse the reduction of aldoses to polyhydric alcohols, and particularly to reduce glucose to sorbitol, caused by a test compound can then be determined using standard spectrophotometric methods."}, "[2]": {"system": "aldose reductase", "experiment": "reduction of sciatic nerve sorbitol in streptozotocin-diabetic rats (inhibition of aldose reductase in vivo)", "set-up": "species or system rat", "details": "5 daily oral doses of 3 mg/kg", "procedure": "Rats are made diabetic (as evidenced by severe glucosuria being present) by dosing with streptozotocin. The animals are then dosed daily with the test compound for one, two or five days. The animals are then sacrificed 2-6 hours after the final dose and the eye lenses and/or sciatic nerves are removed. After a standard work-up procedure the residual sorbitol levels in each tissue are determined by gas liquid chromatography after conversion to the polytrimethylsilyl derivatives. Inhibition of aldose reductase in vivo can then be assessed by comparing the residual sorbitol levels in tissues from the dosed diabetic group of rats with those of an undosed group of diabetic rats and an undosed group of normal rats.\nIn a variation of the above test diabetic rats are dosed at a fixed daily oral dose for five days and then sacrificed 6 hours after the final dose and the reduction of sciatic nerve sorbitol assessed relative to that in control animals."}}, "data": [{"smiles": "Cc1cc(NC(=O)Cc2ccccc2)cc(C)c1S(=O)(=O)C[N+](=O)[O-]", "note": "[Example 1, (2,6-dimethyl-4-[phenylacetamido]phenylsulfonyl)nitromethane]", "values": [{"measurement": "IC50", "setting": "[1]", "value": 118, "unit": "nM"}, {"measurement": "reduction in sciatic nerve sorbitol levels", "setting": "[2]", "value": 83, "unit": "%"}]}]}
